Assay results from PMC11847541, “Liver fatty acid binding protein FABP1 transfers substrates to cytochrome P450 4A11 for catalysis” (The Journal of Biological Chemistry, 2025).
Read-outs that look alike come from different tables or passages of the source.

Columns and labels:
FABP3 = target: FABP3; set-up: method as in PMID 11170430; conditions: human heart FABP (FABP3); cited from earlier work
FABP1 [1] = target: T1, FABP1 (Homo sapiens, UniProt P07148); assay: DAUDA displacement fluorescence titrations of DAUDA–FABP1 with fatty acids, fit in KinTek Explorer; assay type: binding
T1 construct: GST (N, cleaved yes); made in house; host or cells: Escherichia coli DH5α
T1 sequence (P07148 with tags, fused parts or gaps): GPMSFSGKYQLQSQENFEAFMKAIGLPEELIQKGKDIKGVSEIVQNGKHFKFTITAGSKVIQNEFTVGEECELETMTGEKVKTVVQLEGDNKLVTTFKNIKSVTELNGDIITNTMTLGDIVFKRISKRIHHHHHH
Source text: The FABP–DAUDA system was used to screen saturated fatty acids (C12 to C18) for binding to FABP, and the Kd values were estimated in competition with the fluorophore (using its known Kd) with the kinetic modeling software KinTek Explorer. The general model is shown in Fig. 5A, where the substrate is competed against the fluorescent DAUDA–FABP1 complex for binding, yielding a ternary DAUDA–FABP1–substrate complex that is accompanied by an attenuation in fluorescence.
Figure 5 Fluorescence titrations of DAUDA–FABP1 with fatty acids (“forward” titrations).A, model of all binding equilibria accounted for in the DAUDA displacement assays. In the fluorescence assays (λex = 335 nm), DAUDA (D) binds to FABP1 (F) to form a fluorescent (indicated with yellow flash) complex (FD), with which a lipid (S) is then competed against for binding. The binding of S attenuates the fluorescence (denoted with a smaller yellow flash) and forms a ternary complex (FDS). High concentrations of S may completely displace D to form FSS, a spectroscopically silent complex. Using this method, fluorescence titrations were carried out with the fatty acids (B) laurate, (C) myristate, (D) palmitate, (E) 16-hydroxypalmitate, and (F) stearate. Fluorescence at the emission maximum (482 nm) was monitored (as in Fig. 4) and normalized to the starting fluorescence (i.e., the FD complex prior to the addition of S). Each data point corresponds to one independent replicate. DAUDA, 11-dansylaminoundecanoic acid; FABP1, fatty acid binding protein.
For the titrations with lipids, solutions of FABP1 (0.5 μM) and DAUDA (0.25 μM) were prepared such that the fluorescent species was not present in excess ([75]). A baseline was recorded with phosphate buffer, and a starting (basis) spectrum was recorded of the FABP–DAUDA complex (1 ml). The lipid solutions were gradually added to the cuvette with gentle mixing (pipetting up and down ∼7× with a pipette tip), and spectra were recorded (Fig. S12A). Control titrations were also performed the same day with solvent alone (Fig. S12B) as a normalizing factor for the lipid titrations as fluorescence attenuation was also observed to a much lesser degree as a solvent effect (Fig. S12C, D). […] The data were processed such that within the lipid titration and the solvent titration, the F482 values were normalized to the starting value (the initial FABP1–DAUDA complex with nothing added, set to 100%). The relative fluorescence of the lipid titration was then normalized to the relative fluorescence of the solvent titration to adjust for fluorescence attenuation observed in the solvent titration (presumably from altering the fluorophore environment). Thus, the data were processed according to y=(F482/F482(initial))lipid/(F482/F482(initial))solvent , and the resulting values were plotted as a function of lipid concentration (Fig. S12E). The curve was imported into KinTek Explorer ([76]) and was fit to a kinetic model (Fig. S13) to determine the Kd values (Table 1). Within the KinTek software, all fluorescent species required fluorescence scaling factors to convert signal to concentration. Scaling factors for the FABP–DAUDA complex, FABP–DAUDA–lipid complex, and DAUDA alone were 460, 92, and 8, respectively.
Figure S12. Data processing for FABP1 titration with palmitate. Fluorescence spectrum of increasing additions of (A) palmitate (0-2 µM, added in C2H5OH) and (B) C2H5OH to a mixture of DAUDA (0.25 µM) and FABP1 (0.5 µM), performed as described in the Experimental Methods (see “Titrations of FABP1 with lipids, DAUDA”). C, fluorescence values at 482 nm (F482) from the titrations presented in parts A and B are normalized to the starting values (DAUDA-FABP1 complex, no volume added). Data are reported as a function of volume of titrant added to the cuvette (black, C2H5OH alone; red, palmitate in C2H5OH). […]

FABP1 [2] = target: T1, FABP1; conditions: human FABP1, fluorescence displacement assay; read-out: Kd; cited from earlier work
FABP1 [3] = target: T1, FABP1; set-up: method as in PMID 10852718; conditions: ADIFAB system; cited from earlier work
FABP1 [4] = target: FABP1; set-up: method as in PMID 8940102; conditions: rat protein, cited from earlier work
FABP1 [5] = target: FABP1; set-up: method as in PMID 8541331; conditions: bovine protein, cited from earlier work
[6] = lipid binding to DAUDA-bound FABP1 (DAUDA displacement), read-out: Kd, FD + S ↔ FDS
[7] = lipid binding to apo-FABP1, estimated via kinetic modeling, read-out: Kd, F + S ↔ FS
[8] = lipid binding to ternary complex FDS (full displacement of DAUDA), low-affinity site, read-out: Kd, FDS + S ↔ FSS + D
[9] = high-affinity site, read-out: Kd,1
[10] = low-affinity site, read-out: Kd,2

O=C(O)CCC/C=C\C/C=C\C/C=C\C/C=C\CCCCCO [20-HETE, 20-hydroxyeicosatetraenoic acid]
Kd (FABP3): ~440 nM

CCCCCCCCCCCC(=O)O [Laurate (C12), laurate]
% Fluorescence (FABP1 [1]; lipid 1 µM, FABP1 0.5 µM, DAUDA 0.25 µM, F482 normalized): 94.95%
% Fluorescence (FABP1 [1]; lipid 2 µM, FABP1 0.5 µM, DAUDA 0.25 µM, F482 normalized): 89.77%
% Fluorescence (FABP1 [1]; lipid 3.5 µM, FABP1 0.5 µM, DAUDA 0.25 µM, F482 normalized): 89.03%
% Fluorescence (FABP1 [1]; lipid 5 µM, FABP1 0.5 µM, DAUDA 0.25 µM, F482 normalized): 85.89%
% Fluorescence (FABP1 [1]; lipid 7.5 µM, FABP1 0.5 µM, DAUDA 0.25 µM, F482 normalized): 85.69%
% Fluorescence (FABP1 [1]; lipid 10 µM, FABP1 0.5 µM, DAUDA 0.25 µM, F482 normalized): 75.3%
% Fluorescence (FABP1 [1]; lipid 20 µM, FABP1 0.5 µM, DAUDA 0.25 µM, F482 normalized): 57.47%
% Fluorescence (FABP1 [1]; lipid 35 µM, FABP1 0.5 µM, DAUDA 0.25 µM, F482 normalized): 47.27%
% Fluorescence (FABP1 [1]; lipid 50 µM, FABP1 0.5 µM, DAUDA 0.25 µM, F482 normalized): 41.27%
% Fluorescence (FABP1 [1]; lipid 75 µM, FABP1 0.5 µM, DAUDA 0.25 µM, F482 normalized): 35.15%
% Fluorescence (FABP1 [1]; lipid 100 µM, FABP1 0.5 µM, DAUDA 0.25 µM, F482 normalized): 31.33%
% Fluorescence (FABP1 [1]; lipid 125 µM, FABP1 0.5 µM, DAUDA 0.25 µM, F482 normalized): 28.58%
% Fluorescence (FABP1 [1]; lipid 150 µM, FABP1 0.5 µM, DAUDA 0.25 µM, F482 normalized): 29.65%
% Fluorescence (FABP1 [1]; lipid 200 µM, FABP1 0.5 µM, DAUDA 0.25 µM, F482 normalized): 27.61%
% Fluorescence (FABP1 [1]; lipid 300 µM, FABP1 0.5 µM, DAUDA 0.25 µM, F482 normalized): 25.74%
% Fluorescence (FABP1 [1]; lipid 400 µM, FABP1 0.5 µM, DAUDA 0.25 µM, F482 normalized): 23.15%
koff, F + S ↔ FS (FABP1 [1]; lipid (S) binding to apo-FABP1 (F), kinetic modeling, on-rate 9.0 × 10^7 M^−1 s^−1): 2700 s⁻¹
Kd (FABP1 [1]; [6]): 18 µM
koff, FD + S ↔ FDS (FABP1 [1]; lipid binding to DAUDA-bound FABP1 (FD), on-rate 2.3 × 10^7 M^−1 s^−1): 410 s⁻¹
Kd (FABP1 [1]; [7]): 30 µM
Kd (FABP1 [1]; [8]): > 1000 µM

CCCCCCCCCCCCCC(=O)O [Myristate (C14), myristate]
Kd (FABP1 [1]; [6]): 0.86 µM
Kd (FABP1 [1]; [7]): 2.6 µM
Kd (FABP1 [1]; [8]): 43 µM
remaining activity at 0.01 µM (FABP1 [1]; read-out: % Fluorescence): 98.3%
remaining activity at 0.03 µM (FABP1 [1]; read-out: % Fluorescence): 99.1%
remaining activity at 0.06 µM (FABP1 [1]; read-out: % Fluorescence): 98.2%
remaining activity at 0.1 µM (FABP1 [1]; read-out: % Fluorescence): 97.3%
remaining activity at 0.3 µM (FABP1 [1]; read-out: % Fluorescence): 92.9%
remaining activity at 0.6 µM (FABP1 [1]; read-out: % Fluorescence): 81%
remaining activity at 1 µM (FABP1 [1]; read-out: % Fluorescence): 71.9%
remaining activity at 3 µM (FABP1 [1]; read-out: % Fluorescence): 42.2%
remaining activity at 6 µM (FABP1 [1]; read-out: % Fluorescence): 25.9%
remaining activity at 10 µM (FABP1 [1]; read-out: % Fluorescence): 18.2%
remaining activity at 30 µM (FABP1 [1]; read-out: % Fluorescence): 13.1%
koff (FABP1 [1]; read-out: koff, F + S ↔ FS): 240 s⁻¹
koff (FABP1 [1]; read-out: koff, FD + S ↔ FDS): 20 s⁻¹
koff (FABP1 [1]; read-out: koff, FDS + S ↔ FSS + D): 980 s⁻¹

CCCCCCCCCCCCCCCCCC(=O)O [Stearate (C18), stearate]
Kd (FABP1 [2]): 29 ± 2 nM
remaining activity at 0.01 µM (FABP1 [1]; lipid 0.01 µM, FABP1 0.5 µM, DAUDA 0.25 µM, F482 normalized, read-out: % Fluorescence): 92.3%
remaining activity at 0.025 µM (FABP1 [1]; lipid 0.025 µM, FABP1 0.5 µM, DAUDA 0.25 µM, F482 normalized): 92.5%
remaining activity at 0.05 µM (FABP1 [1]; lipid 0.05 µM, FABP1 0.5 µM, DAUDA 0.25 µM, F482 normalized): 87.6%
remaining activity at 0.075 µM (FABP1 [1]; lipid 0.075 µM, FABP1 0.5 µM, DAUDA 0.25 µM, F482 normalized): 81.3%
remaining activity at 0.1 µM (FABP1 [1]; lipid 0.1 µM, FABP1 0.5 µM, DAUDA 0.25 µM, F482 normalized, read-out: % Fluorescence): 78.3%
remaining activity at 0.15 µM (FABP1 [1]; lipid 0.15 µM, FABP1 0.5 µM, DAUDA 0.25 µM, F482 normalized): 69.4%
remaining activity at 0.2 µM (FABP1 [1]; lipid 0.2 µM, FABP1 0.5 µM, DAUDA 0.25 µM, F482 normalized): 61%
remaining activity at 0.25 µM (FABP1 [1]; lipid 0.25 µM, FABP1 0.5 µM, DAUDA 0.25 µM, F482 normalized): 54.2%
remaining activity at 0.35 µM (FABP1 [1]; lipid 0.35 µM, FABP1 0.5 µM, DAUDA 0.25 µM, F482 normalized): 44.4%
remaining activity at 0.45 µM (FABP1 [1]; lipid 0.45 µM, FABP1 0.5 µM, DAUDA 0.25 µM, F482 normalized): 37.1%
remaining activity at 0.6 µM (FABP1 [1]; lipid 0.6 µM, FABP1 0.5 µM, DAUDA 0.25 µM, F482 normalized, read-out: % Fluorescence): 31.3%
remaining activity at 0.9 µM (FABP1 [1]; lipid 0.9 µM, FABP1 0.5 µM, DAUDA 0.25 µM, F482 normalized): 24.2%
remaining activity at 1.15 µM (FABP1 [1]; lipid 1.15 µM, FABP1 0.5 µM, DAUDA 0.25 µM, F482 normalized): 24.1%
remaining activity at 1.4 µM (FABP1 [1]; lipid 1.4 µM, FABP1 0.5 µM, DAUDA 0.25 µM, F482 normalized): 23.6%
remaining activity at 1.9 µM (FABP1 [1]; lipid 1.9 µM, FABP1 0.5 µM, DAUDA 0.25 µM, F482 normalized): 23.3%
koff (FABP1 [1]; lipid (S) binding to apo-FABP1 (F), kinetic modeling, on-rate 9.0 × 10^7 M^−1 s^−1, read-out: koff, F + S ↔ FS): 6.2 s⁻¹
Kd (FABP1 [1]; [6]): 0.021 µM
koff (FABP1 [1]; lipid binding to DAUDA-bound FABP1 (FD), on-rate 2.3 × 10^7 M^−1 s^−1, read-out: koff, FD + S ↔ FDS): 0.48 s⁻¹
Kd (FABP1 [1]; [7]): 0.069 µM
Kd (FABP1 [1]; [8]): 34 µM
koff (FABP1 [1]; lipid binding to ternary complex FDS (full displacement of DAUDA), read-out: koff, FDS + S ↔ FSS + D): 770 s⁻¹
Kd (FABP1 [3]): 23 nM

CCCCC/C=C\C/C=C\C/C=C\C/C=C\CCCC(=O)O [arachidonate]
Kd (FABP3): ~50 nM

CCCCC/C=C\C/C=C\CCCCCCCC(=O)O [linoleate]
Kd (FABP1 [4]; [9]): ~10 nM
Kd (FABP1 [4]; [10]): ~200 nM

CCCCCCCC/C=C\CCCCCCCC(=O)O [oleate]
Kd (FABP1 [5]; [9]): 260 nM
Kd (FABP1 [5]; [10]): > 5000 nM
